Data from ChEMBL document CHEMBL1141060, “A new synthesis of isoaurones: cytotoxic activity of compounds related to the alleged structure of isoaurostatin” (Bioorg Med Chem Lett, 2005).

The compounds below were run on NCI-H460 (assay: Cytotoxic activity against human non-small lung carcinoma cell line H460).
Type: functional, cell-based
In the case of `COc1ccc(/C=C2/C(=O)Oc3ccccc32)cc1`, the IC50 is reported as greater than 39 µM. `COc1cc(OC)c2c(c1)OC(=O)/C2=C/c1ccc(OC)c(O)c1` gave an IC50 of 8.8 µM. `COc1cc(/C=C2/C(=O)Oc3ccccc32)cc(OC)c1OC` was tested, and the IC50 was 37.7 µM. `CC(=O)Oc1ccc(/C=C2/C(=O)Oc3ccc(OC(C)=O)cc32)cc1` gave an IC50 greater than 50 µM. Compound `O=C1Oc2ccccc2/C1=C\c1ccc(OC(=O)c2ccccc2)cc1` has an IC50 greater than 30 µM. With `O=C1Oc2ccccc2/C1=C\c1ccc(O)cc1` the IC50 was 10.1 µM. In the case of `COc1ccc(/C=C2/C(=O)Oc3ccccc32)cc1O`, the IC50 is reported as 9.3 µM.
